Source: patent US20090149458A1, “PYRROLO[3,2-d]PYRIMIDINE COMPOUNDS AND THEIR USE AS PI3 KINASE AND mTOR KINASE INHIBITORS” (Wyeth, priority 2007, published 2009)

Experiments:
Type in all cases: biochemical
PI3 Kinase γ = PI3 Kinase γ (Homo sapiens, UniProt P48736); experiment: PI3K fluorescence polarization assay (PI3 Kinase γ); conditions: 20 uM PIP2, 25 uM ATP
Procedure: Buffers: Reaction Buffer: 20 mM HEPES pH7.5, 2 mM MgCl2, 0.05% CHAPS, and 0.01% bME (added fresh); STOP/detection Buffer: 100 mM HEPES pH7.5, 4 mM EDTA, 0.05% CHAPS. STOCKS: ATP 20 mM in H2O; PIP2 (diC8, Echelon cat# P-4508) 1 mM in H2O MW=856.5; GST-murine GRP 1.5 mg/ml in 17% glycerol; Red detector probe-Echelon (TAMRA) 2.5 uM. Plate: Nunc 384 well black polypropylene fluor. Plate.
Assay: The assay is run by putting 9.5 ul of freshly diluted enzyme (in “reaction buffer”) per well, then 0.5 ul of diluted drug or DMSO mixing. Then 10 ul of substrate is added to start the reaction. The mixture is incubated 30-60 minutes, room temp, then stopped with 20 ul of stop/detector mix. The substrate solution, is 40 μM PIP2 and 50 uM ATP in reaction buffer. Addition of 10 ul of substrate to each well starts the reaction. This is 20 uM PIP2, 25 uM ATP final in reaction.
Stop/detector mix: 10 nM TAMRA detector, 40 nM GST-GRP in STOP/detection buffer. To stop reaction: add 20 ul Stop/detector mix per well and mix well. Wait 90-110 minutes before reading plate. Plates are read on Perkin-Elmer Envision plate readers with filters for Tamra. Keep Red probe solutions dark. This procedure is adapted from Echelon Biosciences Inc procedure for their PI3-Kinase fluorescence polarization activity Assay kit Product number K-1100.

human TOR = target: T1, human TOR (Homo sapiens, UniProt P42345); experiment: human TOR kinase assay with purified enzyme, DELFIA format; conditions: FLAG-TOR, 100 μM ATP, His6-S6K substrate;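 further: 2 h kinase reaction at room temperature, phosphorylation of S6K at T389 detected with a europium-labelled antibody after plate capture, DMSO vehicle as control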
T1 construct: FLAG

PI3 Kinase α = PI3 Kinase α (Homo sapiens, UniProt P42336); experiment: PI3K fluorescence polarization assay (PI3 Kinase α); conditions: 20 uM PIP2, 25 uM ATP;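 further: enzyme reaction with inhibitor or DMSO control, 30–60 min at room temperature, stopped by EDTA, then TAMRA detector with GST-GRP fluorescence polarization read after 90–110 min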
Chain of PI3 Kinase α (P42336 whole entry): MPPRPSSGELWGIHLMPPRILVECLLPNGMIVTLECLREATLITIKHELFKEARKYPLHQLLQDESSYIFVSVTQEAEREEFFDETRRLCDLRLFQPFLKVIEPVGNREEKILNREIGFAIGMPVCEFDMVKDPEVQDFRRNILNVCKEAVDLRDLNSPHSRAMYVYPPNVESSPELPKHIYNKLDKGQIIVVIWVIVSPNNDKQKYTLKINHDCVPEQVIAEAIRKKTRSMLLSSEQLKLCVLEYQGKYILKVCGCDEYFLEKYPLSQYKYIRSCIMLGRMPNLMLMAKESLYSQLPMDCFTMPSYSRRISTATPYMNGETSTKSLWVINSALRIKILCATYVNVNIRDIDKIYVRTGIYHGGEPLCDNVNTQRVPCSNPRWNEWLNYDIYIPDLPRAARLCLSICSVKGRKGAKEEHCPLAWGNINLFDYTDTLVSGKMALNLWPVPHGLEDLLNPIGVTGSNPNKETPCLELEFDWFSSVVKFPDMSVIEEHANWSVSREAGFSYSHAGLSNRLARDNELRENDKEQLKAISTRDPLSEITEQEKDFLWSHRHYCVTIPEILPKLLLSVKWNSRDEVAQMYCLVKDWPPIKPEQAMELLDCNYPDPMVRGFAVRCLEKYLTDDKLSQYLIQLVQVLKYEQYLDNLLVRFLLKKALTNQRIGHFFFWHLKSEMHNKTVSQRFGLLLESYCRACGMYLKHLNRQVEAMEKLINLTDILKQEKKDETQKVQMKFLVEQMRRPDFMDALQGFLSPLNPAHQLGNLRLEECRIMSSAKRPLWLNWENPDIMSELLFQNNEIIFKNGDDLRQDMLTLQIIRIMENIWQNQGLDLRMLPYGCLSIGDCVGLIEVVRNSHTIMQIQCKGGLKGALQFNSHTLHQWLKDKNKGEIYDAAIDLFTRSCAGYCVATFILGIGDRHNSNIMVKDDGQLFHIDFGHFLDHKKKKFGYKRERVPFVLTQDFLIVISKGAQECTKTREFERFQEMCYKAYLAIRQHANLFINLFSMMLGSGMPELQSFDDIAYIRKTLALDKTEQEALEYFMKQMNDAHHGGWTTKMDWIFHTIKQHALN
Chain of PI3 Kinase α (P27986 whole entry partner): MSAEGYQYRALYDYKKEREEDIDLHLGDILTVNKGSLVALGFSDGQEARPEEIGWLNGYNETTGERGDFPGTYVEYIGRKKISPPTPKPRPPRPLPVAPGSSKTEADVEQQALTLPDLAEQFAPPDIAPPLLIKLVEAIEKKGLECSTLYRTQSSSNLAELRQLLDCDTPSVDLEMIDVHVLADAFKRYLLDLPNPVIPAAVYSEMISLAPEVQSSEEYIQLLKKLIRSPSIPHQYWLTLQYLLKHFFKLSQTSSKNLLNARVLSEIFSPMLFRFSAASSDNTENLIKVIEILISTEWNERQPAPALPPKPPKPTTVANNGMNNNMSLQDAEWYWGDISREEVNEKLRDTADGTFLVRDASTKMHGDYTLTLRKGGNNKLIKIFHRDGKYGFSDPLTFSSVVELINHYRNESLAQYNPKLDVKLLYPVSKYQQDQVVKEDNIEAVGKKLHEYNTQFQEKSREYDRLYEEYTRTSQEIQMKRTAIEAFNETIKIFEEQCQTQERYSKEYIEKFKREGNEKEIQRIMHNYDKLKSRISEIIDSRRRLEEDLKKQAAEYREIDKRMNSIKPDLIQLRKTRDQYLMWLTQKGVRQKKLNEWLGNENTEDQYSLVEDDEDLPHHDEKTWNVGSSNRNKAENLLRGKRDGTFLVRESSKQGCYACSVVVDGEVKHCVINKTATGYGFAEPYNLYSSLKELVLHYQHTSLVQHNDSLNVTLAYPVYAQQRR

Chain of PI3 Kinase γ (P48736 whole entry): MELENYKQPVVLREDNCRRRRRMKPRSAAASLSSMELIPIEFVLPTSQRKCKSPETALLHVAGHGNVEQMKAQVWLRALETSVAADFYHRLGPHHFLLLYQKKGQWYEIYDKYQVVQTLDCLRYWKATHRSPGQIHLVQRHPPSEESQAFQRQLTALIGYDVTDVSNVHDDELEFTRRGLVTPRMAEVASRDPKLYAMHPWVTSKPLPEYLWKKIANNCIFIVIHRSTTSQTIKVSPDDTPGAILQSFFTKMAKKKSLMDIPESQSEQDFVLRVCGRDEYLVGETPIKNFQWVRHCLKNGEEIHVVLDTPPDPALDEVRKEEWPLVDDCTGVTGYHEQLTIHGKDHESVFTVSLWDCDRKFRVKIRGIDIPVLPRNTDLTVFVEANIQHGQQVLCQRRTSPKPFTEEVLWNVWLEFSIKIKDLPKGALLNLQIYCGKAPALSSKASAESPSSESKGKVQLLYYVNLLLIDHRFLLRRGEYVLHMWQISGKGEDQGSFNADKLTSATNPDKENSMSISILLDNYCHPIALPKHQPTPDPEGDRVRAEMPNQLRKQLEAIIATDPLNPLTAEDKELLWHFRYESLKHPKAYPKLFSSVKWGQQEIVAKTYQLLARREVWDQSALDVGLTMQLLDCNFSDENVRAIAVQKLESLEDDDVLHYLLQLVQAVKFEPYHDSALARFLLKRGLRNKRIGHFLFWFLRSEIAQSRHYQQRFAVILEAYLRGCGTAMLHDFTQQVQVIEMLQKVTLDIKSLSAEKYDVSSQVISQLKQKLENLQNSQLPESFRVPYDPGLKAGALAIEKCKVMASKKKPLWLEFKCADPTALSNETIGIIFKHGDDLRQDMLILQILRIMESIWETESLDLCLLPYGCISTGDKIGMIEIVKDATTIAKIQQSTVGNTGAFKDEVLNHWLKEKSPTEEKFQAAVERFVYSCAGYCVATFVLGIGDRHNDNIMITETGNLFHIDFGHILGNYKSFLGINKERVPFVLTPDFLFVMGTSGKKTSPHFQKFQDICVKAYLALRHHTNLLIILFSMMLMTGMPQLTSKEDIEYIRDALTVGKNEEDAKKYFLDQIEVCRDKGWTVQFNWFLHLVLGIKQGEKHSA

| Structure (SMILES) | IC50 (PI3 Kinase γ) [µM] | IC50 (human TOR) [µM] | IC50 (PI3 Kinase α) [µM] |
| --- | --- | --- | --- |
| Oc1cccc(-c2nc(N3CCOCC3)c3[nH]ccc3n2)c1 [Example 2, 3-(4-morpholin-4-yl-5H-pyrrolo[3,2-d]pyrimidin-2-yl)phenol] | 0.164 | – | – |
| Oc1cccc(-c2nc(N3CCOCC3)c3[nH]cc(C4CCN(C5CCCCC5)CC4)c3n2)c1 [Example 31, 3-[7-(1-cyclohexylpiperidin-4-yl)-4-morpholin-4-yl-5H-pyrrolo[3,2-d]pyrimidin-2-yl]phenol] | 2.49 | 0.37 | 0.25 |
| Oc1cccc(-c2nc(N3CCOCC3)c3[nH]cc(C4CCN(Cc5ccc(F)cc5Cl)CC4)c3n2)c1 [Example 34, 3-{7-[1-(2-chloro-4-fluorobenzyl)piperidin-4-yl]-4-morpholin-4-yl-5H-pyrrolo[3,2-d]pyrimidin-2-yl}phenol] | 1.37 | 0.46 | 0.12 |
| Oc1cccc(-c2nc(N3CCOCC3)c3[nH]cc(C4CCN(Cc5ccco5)CC4)c3n2)c1 [Example 27, 3-{7-[1-(2-furylmethyl)piperidin-4-yl]-4-morpholin-4-yl-5H-pyrrolo[3,2-d]pyrimidin-2-yl}phenol] | 1.61 | 2.75 | 0.297 |
| CN(C)Cc1c[nH]c2c(N3CCOCC3)nc(-c3cccc(O)c3)nc12 [Example 18, 3-{7-[(dimethylamino)methyl]-4-morpholin-4-yl-5H-pyrrolo[3,2-d]pyrimidin-2-yl}phenol] | 1.15 | 3.3 | 0.074 |
| CNC(=O)Nc1ccc(-c2nc(N3CCOCC3)c3[nH]ccc3n2)cc1 [Example 6, 1-methyl-3-[4-(4-morpholin-4-yl-5H-pyrrolo[3,2-d]pyrimidin-2-yl)phenyl]urea] | 4.98 | 0.22 | 2.67 |
| O=C1COCCN1c1nc(-c2cccc(O)c2)nc2cc[nH]c12 [Example 48, 4-[2-(3-hydroxyphenyl)-5H-pyrrolo[3,2-d]pyrimidin-4-yl]morpholin-3-one] | 2 | 0.505 | 1.18 |
| CN1CCC(c2c[nH]c3c(N4CCOCC4)nc(-c4cccc(O)c4)nc23)CC1 [Example 30, 3-[7-(1-methylpiperidin-4-yl)-4-morpholin-4-yl-5H-pyrrolo[3,2-d]pyrimidin-2-yl]phenol] | 0.828 | 3.75 | 0.484 |
| OCc1cccc(-c2nc(N3CCOCC3)c3[nH]cc(CN4CCN(c5ncccn5)CC4)c3n2)c1 [Example 14] | 4.51 | 2.2 | 0.089 |
| CN(C)CCNC(=O)Nc1cccc(-c2nc(N3CCOCC3)c3[nH]ccc3n2)c1 [Example 40, 1-[2-(dimethylamino)ethyl]-3-[3-(4-morpholin-4-yl-5H-pyrrolo[3,2-d]pyrimidin-2-yl)phenyl]urea] | 9.5 | > 4 | 4.68 |
| Oc1cccc(-c2nc(N3CCOCC3)c3[nH]cc(C4CCN(Cc5ccccc5)CC4)c3n2)c1 [Example 26, 3-[7-(1-benzylpiperidin-4-yl)-4-morpholin-4-yl-5H-pyrrolo[3,2-d]pyrimidin-2-yl]phenol] | 0.89 | – | – |
| CCN(CC)Cc1c[nH]c2c(N3CCOCC3)nc(-c3cccc(CO)c3)nc12 [Example 13] | 0.818 | 0.26 | 0.028 |
| O=C(NCc1ccco1)Nc1cccc(-c2nc(N3CCOCC3)c3[nH]ccc3n2)c1 [Example 43, 1-(2-furylmethyl)-3-[3-(4-morpholin-4-yl-5H-pyrrolo[3,2-d]pyrimidin-2-yl)phenyl]urea] | > 10 | > 4 | > 10 |
| OCc1cccc(-c2nc(N3CCOCC3)c3[nH]cc(CNCc4cccnc4)c3n2)c1 [Example 9, [3-(4-morpholin-4-yl-7-{[(pyridin-3-ylmethyl)amino]methyl}-5H-pyrrolo[3,2-d]pyrimidin-2-yl)phenyl]methanol] | 2.87 | 5.5 | 0.074 |
| CN1CCN(Cc2c[nH]c3c(N4CCOCC4)nc(-c4cccc(CO)c4)nc23)CC1 [Example 10] | 2.02 | 7.85 | 0.062 |
| Oc1cccc(-c2nc(N3CCOCC3)c3[nH]cc(C4CCN(Cc5ccccn5)CC4)c3n2)c1 [Example 38, 3-{4-morpholin-4-yl-7-[1-(pyridin-2-ylmethyl)piperidin-4-yl]-5H-pyrrolo[3,2-d]pyrimidin-2-yl}phenol] | 0.611 | 0.605 | 0.14 |
| Oc1cccc(-c2nc(N3CCOCC3)c3[nH]cc(CNCc4cccnc4)c3n2)c1 [Example 16, 3-(4-morpholin-4-yl-7-{[(pyridin-3-ylmethyl)amino]methyl}-5H-pyrrolo[3,2-d]pyrimidin-2-yl)phenol] | 3.03 | > 4 | 0.18 |

| Structure (SMILES) | IC50 (PI3 Kinase γ) [µM] | IC50 (human TOR) [µM] | IC50 (PI3 Kinase α) [µM] |
| --- | --- | --- | --- |
| Oc1cccc(-c2nc(N3CCOCC3)c3[nH]cc(C4CCN(Cc5ncc[nH]5)CC4)c3n2)c1 [Example 28, 3-{7-[1-(1H-imidazol-2-ylmethyl)piperidin-4-yl]-4-morpholin-4-yl-5H-pyrrolo[3,2-d]pyrimidin-2-yl}phenol] | 0.983 | 2.5 | 0.358 |
| Oc1cccc(-c2nc(N3CCOCC3)c3[nH]cc(C4CCN(Cc5ccc(F)cc5)CC4)c3n2)c1 [Example 23, 3-{7-[1-(4-fluorobenzyl)piperidin-4-yl]-4-morpholin-4-yl-5H-pyrrolo[3,2-d]pyrimidin-2-yl}phenol] | 1.07 | – | – |
| OCc1cccc(-c2nc(N3CCOCC3)c3[nH]cc(CN4CCN(Cc5ccccc5)CC4)c3n2)c1 [Example 15] | 2.39 | 5.8 | 0.24 |
| OCc1cccc(-c2nc(N3CCOCC3)c3[nH]cc(CNCCN4CCCCC4)c3n2)c1 [Example 8, [3-(4-morpholin-4-yl-7-{[(2-piperidin-1-ylethyl)amino]methyl}-5H-pyrrolo[3,2-d]pyrimidin-2-yl)phenyl]methanol] | 4.28 | 11.1 | 0.072 |
| Oc1cccc(-c2nc(N3CCOCC3)c3[nH]cc(C4CCNCC4)c3n2)c1 [Example 22, 3-(4-morpholin-4-yl-7-piperidin-4-yl-5H-pyrrolo[3,2-d]pyrimidin-2-yl)phenol] | 1.07 | – | – |
| CCN(CC)Cc1c[nH]c2c(N3CCOCC3)nc(-c3cccc(O)c3)nc12 [Example 19, 3-{7-[(diethylamino)methyl]-4-morpholin-4-yl-5H-pyrrolo[3,2-d]pyrimidin-2-yl}phenol] | 1.82 | 3.1 | 0.132 |
| O=C(NCCCn1ccnc1)Nc1cccc(-c2nc(N3CCOCC3)c3[nH]ccc3n2)c1 [Example 42, 1-[3-(1H-imidazol-1-yl)propyl]-3-[3-(4-morpholin-4-yl-5H-pyrrolo[3,2-d]pyrimidin-2-yl)phenyl]urea] | > 10 | > 4 | 8.94 |
| O=C(NCCCO)Nc1cccc(-c2nc(N3CCOCC3)c3[nH]ccc3n2)c1 [Example 41, 1-(3-hydroxypropyl)-3-[3-(4-morpholin-4-yl-5H-pyrrolo[3,2-d]pyrimidin-2-yl)phenyl]urea] | > 10 | > 4 | 6.22 |
| CN(C)Cc1c[nH]c2c(N3CCOCC3)nc(-c3cccc(CO)c3)nc12 [Example 12] | 0.561 | – | – |
| OCc1cccc(-c2nc(N3CCOCC3)c3[nH]cc(CN4CCCC4)c3n2)c1 [Example 7, {3-[4-morpholin-4-yl-7-(pyrrolidin-1-ylmethyl)-5H-pyrrolo[3,2-d]pyrimidin-2-yl]phenyl}methanol] | 1.12 | – | – |
| OCc1cccc(-c2nc(N3CCOCC3)c3[nH]ccc3n2)c1 [Example 3, [3-(4-morpholin-4-yl-5H-pyrrolo[3,2-d]pyrimidin-2-yl)phenyl]methanol] | 0.918 | – | – |
| Cn1cc(CN2CCCC2)c2nc(-c3cccc(CO)c3)nc(N3CCOCC3)c21 [Example 47, {3-[5-methyl-4-morpholin-4-yl-7-(pyrrolidin-1-ylmethyl)-5H-pyrrolo[3,2-d]pyrimidin-2-yl]phenyl}methanol] | > 10 | > 4 | – |
| Cc1cccc(-c2nc(N3CCOCC3)c3[nH]ccc3n2)c1 [Example 4, 2-(3-methylphenyl)-4-morpholin-4-yl-5H-pyrrolo[3,2-d]pyrimidine] | > 8.7 | 5 | – |
| Cn1ccc2nc(-c3cccc(CO)c3)nc(N3CCOCC3)c21 [Example 45, [3-(5-methyl-4-morpholin-4-yl-5H-pyrrolo[3,2-d]pyrimidin-2-yl)phenyl]methanol] | 8.11 | > 4 | – |
| Nc1cccc(-c2nc(N3CCOCC3)c3[nH]ccc3n2)c1 [Example 5, 3-(4-morpholin-4-yl-5H-pyrrolo[3,2-d]pyrimidin-2-yl)aniline] | 8 | 0.43 | – |
| Oc1cccc(-c2nc(N3CCOCC3)c3[nH]cc(C4CCN(Cc5ccc(Cl)nc5)CC4)c3n2)c1 [Example 35, 3-(7-{1-[(6-chloropyridin-3-yl)methyl]piperidin-4-yl}-4-morpholin-4-yl-5H-pyrrolo[3,2-d]pyrimidin-2-yl)phenol] | – | 0.735 | – |
